{
  "source": "patent US20250230193A1",
  "about": "“CYCLIC COMPOUND HAVING SELECTIVE KRAS INHIBITORY EFFECT ON HRAS AND NRAS” (CHUGAI SEIYAKU KABUSHIKI KAISHA, priority 2022, published 2025)",
  "key": {"[1]": {"target": "GDP-bound NRAS wild-type protein (Homo sapiens, UniProt P01111)", "sequence (P01111 whole entry)": "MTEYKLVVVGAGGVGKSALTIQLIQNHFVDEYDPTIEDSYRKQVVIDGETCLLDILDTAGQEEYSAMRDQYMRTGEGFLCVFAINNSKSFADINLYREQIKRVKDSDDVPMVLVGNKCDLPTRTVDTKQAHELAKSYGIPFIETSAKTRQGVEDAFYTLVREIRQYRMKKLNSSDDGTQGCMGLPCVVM", "experiment": "Binding to NRAS by surface plasmon resonance (SPR), Single Cycle Kinetics", "conditions": "SPR"}, "[2]": {"target": "GDP-bound HRAS wild-type protein (Homo sapiens, UniProt P01112)", "sequence (P01112 whole entry)": "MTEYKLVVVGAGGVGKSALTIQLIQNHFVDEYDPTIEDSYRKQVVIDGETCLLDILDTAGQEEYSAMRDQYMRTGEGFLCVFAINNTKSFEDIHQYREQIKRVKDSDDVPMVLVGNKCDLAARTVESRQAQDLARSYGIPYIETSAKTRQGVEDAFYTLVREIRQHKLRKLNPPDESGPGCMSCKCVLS", "experiment": "Binding to HRAS by surface plasmon resonance (SPR), Single Cycle Kinetics", "conditions": "SPR"}, "[3]": {"conditions": "GDP-bound NRAS wild-type vs GDP-bound KRAS wild-type"}, "[4]": {"conditions": "GDP-bound HRAS wild-type vs GDP-bound KRAS wild-type"}, "[5]": {"conditions": "KD ratio, GDP-bound NRAS wild-type vs GDP-bound KRAS wild-type"}, "[6]": {"conditions": "KD ratio, GDP-bound HRAS wild-type vs GDP-bound KRAS wild-type"}},
  "note": "Where a SMILES comes first, the peptide text is derived from it. Bridges are numbered along the chain shown (N, C = ends). [ ]: non-standard residue; d: D form. The star is where a group is joined. hPhe(3,5-F2-4-CF3) = N[C@@H](CCc1cc(F)c(C(F)(F)F)c(F)c1)C(=O)O; NPrPhe(4-CF3) = CCCN[C@@H](Cc1ccc(C(F)(F)F)cc1)C(=O)O; NEtPhe(4-CF3) = CCN[C@@H](Cc1ccc(C(F)(F)F)cc1)C(=O)O; hPhe(3,4-Cl2) = N[C@@H](CCc1ccc(Cl)c(Cl)c1)C(=O)O; NMeGly(cPent) = CN[C@H](C(=O)O)C1CCCC1; Ac4c(3,3-F2) = NC1(C(=O)O)CC(F)(F)C1; NMeD = CN[C@@H](CC(=O)O)C(=O)O; NMeL = CN[C@@H](CC(C)C)C(=O)O; Morpholide = C1CN(*)CCO1; NMeA = CN[C@@H](C)C(=O)O; Ac5c = NC1(C(=O)O)CCCC1; Aze = O=C(O)[C@@H]1CCN1; Sar = CNCC(=O)O",
  "data": [
    {"compound": "CC[C@H](C)[C@@H]1NC(=O)[C@H](CC)N(C)C(=O)C[C@@H](C(=O)N2CCOCC2)N(C)C(=O)[C@H](C2CCCC2)N(C)C(=O)C2(CCCC2)NC(=O)[C@@H]2CCCN2C(=O)[C@H](CCc2cc(F)c(C(F)(F)F)c(F)c2)NC(=O)CN(C)C(=O)[C@H](Cc2ccc(C(F)(F)F)cc2)N2CCCC[C@@H](C2=O)N(C)C(=O)CN(C)C1=O", "note": "[PP0550]", "values": [
      {"measurement": "NRAS/KRAS (ratio of KD value with respect to GDP-bound NRAS wild-type protein to KD value with respect to KRAS)", "setting": "[1]; KD ratio NRAS/KRAS", "result": "B (a compound having 3 or more and less than 10 is denoted as B)"},
      {"measurement": "HRAS/KRAS (ratio of KD value with respect to GDP-bound HRAS wild-type protein to KD value with respect to KRAS)", "setting": "[2]; KD ratio HRAS/KRAS", "result": "B (a compound having 3 or more and less than 10 is denoted as B)"}
    ]},
    {"compound": "CCO[C@@H]1C[C@H]2C(=O)NC3(CC(C)(C)C3)C(=O)N(C)[C@@H](C(CC)CC)C(=O)N(C)[C@H](C(=O)N(C)C)CC(=O)N(C)[C@@H](CC3CC3)C(=O)N[C@@H]([C@@H](C)CC)C(=O)N(C)CC(=O)N(C)[C@H]3C/C=C\\CCN(C3=O)[C@@H](Cc3ccc(C(F)(F)F)cc3)C(=O)N(C)CC(=O)N[C@@H](CCc3cc(F)c(C(F)(F)F)c(F)c3)C(=O)N2C1", "note": "[PP2119]", "values": [
      {"measurement": "NRAS/KRAS (ratio of KD value with respect to NRAS to KD value with respect to KRAS)", "setting": "[1]; [3]", "result": "A (a compound having 10 or more and less than 20 is denoted as A)"},
      {"measurement": "HRAS/KRAS (ratio of KD value with respect to HRAS to KD value with respect to KRAS)", "setting": "[2]; [4]", "result": "B (a compound having 3 or more and less than 10 is denoted as B)"}
    ]},
    {"compound": "CCC[C@H]1C(=O)N[C@@H]([C@@H](C)CC)C(=O)N2CCC[C@H]2C(=O)N(C)[C@H]2C/C=C\\CCN(C2=O)[C@@H](CC2CCC(F)(F)CC2)C(=O)N(C)CC(=O)N[C@@H](CCc2ccc(C(F)(F)F)c(OC)c2)C(=O)N2C[C@H](OCC)C[C@H]2C(=O)N(C)C2(CCC2)C(=O)N(C)[C@@H](C(CC)CC)C(=O)N(C)[C@H](C(=O)N(C)C)CC(=O)N1C", "note": "[PP2353]", "values": [
      {"measurement": "NRAS/KRAS (ratio of KD value with respect to NRAS to KD value with respect to KRAS)", "setting": "[1]; [3]", "result": "A (a compound having 10 or more and less than 20 is denoted as A)"},
      {"measurement": "HRAS/KRAS (ratio of KD value with respect to HRAS to KD value with respect to KRAS)", "setting": "[2]; [4]", "result": "A (a compound having 10 or more and less than 20 is denoted as A)"}
    ]},
    {"compound": "CC[C@H](C)[C@@H]1NC(=O)[C@H](C2CCC2)N(C)C(=O)C[C@@H](C(=O)N(C)CC)N(C)C(=O)[C@H](C2CCCC2)N(C)C(=O)C2(CC(C)(C)C2)NC(=O)[C@@H]2C[C@H](C)CN2C(=O)[C@H](CCc2cc(F)c(C(F)(F)F)c(F)c2)NC(=O)CN(C)C(=O)[C@H](Cc2ccc(C(F)(F)F)cc2)N2CC/C=C\\C[C@@H](C2=O)N(C)C(=O)CN(C)C1=O", "note": "[PP1984]", "values": [
      {"measurement": "NRAS/KRAS (ratio of KD value for NRAS to KD value for KRAS)", "setting": "[1]; [5]", "result": "A (a compound having 10 or more and less than 20 is denoted as A)"},
      {"measurement": "HRAS/KRAS (ratio of KD value for HRAS to KD value for KRAS)", "setting": "[2]; [6]", "result": "A (a compound having 10 or more and less than 20 is denoted as A)"}
    ]},
    {"compound": "CC[C@H](C)[C@@H]1NC(=O)[C@H](CC(C)C)N(C)C(=O)C[C@@H](C(=O)N2CCOCC2)N(C)C(=O)[C@H](C2CCCC2)N(C)C(=O)C2(CCCC2)NC(=O)[C@@H]2CCCN2C(=O)[C@H](CCc2ccc(Cl)c(Cl)c2)NC(=O)CN(C)C(=O)[C@H](Cc2ccc(C(F)(F)F)cc2)N(CC)C(=O)[C@@H]2CCN2C(=O)[C@H](C)N(C)C1=O", "note": "[PP0223] ([NMeL]I[NMeA][Aze][NEtPhe(4-CF3)][Sar][hPhe(3,4-Cl2)]P[Ac5c][NMeGly(cPent)][NMeD]-Morpholide; lactam N-11)", "values": [
      {"measurement": "NRAS/KRAS (ratio of KD for GDP-bound NRAS wild-type to KD for KRAS)", "setting": "[1]; KD ratio NRAS/KRAS", "result": "C (A compound having a KD ratio of 0.1 or more and less than 3 is denoted as C)"},
      {"measurement": "HRAS/KRAS (ratio of KD for GDP-bound HRAS wild-type to KD for KRAS)", "setting": "[2]; KD ratio HRAS/KRAS", "result": "C (A compound having a KD ratio of 0.1 or more and less than 3 is denoted as C)"}
    ]},
    {"compound": "CCO[C@@H]1C[C@H]2C(=O)NC3(CCC3)C(=O)N(C)[C@@H](C3CCCC3)C(=O)N(C)[C@H](C(=O)N3CCOCC3)CC(=O)N(C)[C@@H](COC3CC3)C(=O)N[C@@H]([C@@H](C)CC)C(=O)N(C)CC(=O)N(C)[C@H]3CCCCCN(C3=O)[C@@H](Cc3ccc(C(F)(F)F)cc3)C(=O)N(C)CC(=O)N[C@@H](CCc3cc(F)c(C(F)(F)F)c(F)c3)C(=O)N2C1", "note": "[PP0852]", "values": [
      {"measurement": "NRAS/KRAS (ratio of KD value with respect to NRAS to KD value with respect to KRAS)", "setting": "[1]; [5]", "result": "B (a compound having 3 or more and less than 10 is denoted as B)"},
      {"measurement": "HRAS/KRAS (ratio of KD value with respect to HRAS to KD value with respect to KRAS)", "setting": "[2]; [6]", "result": "B (a compound having 3 or more and less than 10 is denoted as B)"}
    ]},
    {"compound": "CCCN1C(=O)CN(C)C(=O)[C@@H]2CCN2C(=O)[C@H]([C@@H](C)CC)NC(=O)[C@H](CC(C)C)N(C)C(=O)C[C@@H](C(=O)N2CCOCC2)N(C)C(=O)[C@H](C2CCCC2)N(C)C(=O)C2(CC(F)(F)C2)NC(=O)[C@@H]2CCCN2C(=O)[C@H](CCc2cc(F)c(C(F)(F)F)c(F)c2)NC(=O)CN(C)C(=O)[C@@H]1Cc1ccc(C(F)(F)F)cc1", "note": "[PP0783] ([NMeL]I[Aze][Sar][NPrPhe(4-CF3)][Sar][hPhe(3,5-F2-4-CF3)]P[Ac4c(3,3-F2)][NMeGly(cPent)][NMeD]-Morpholide; lactam N-11)", "values": [
      {"measurement": "NRAS/KRAS (ratio of KD value with respect to GDP-bound NRAS wild-type protein to KD value with respect to KRAS)", "setting": "[1]; KD ratio NRAS/KRAS", "result": "B (a compound having 3 or more and less than 10 is denoted as B)"},
      {"measurement": "HRAS/KRAS (ratio of KD value with respect to GDP-bound HRAS wild-type protein to KD value with respect to KRAS)", "setting": "[2]; KD ratio HRAS/KRAS", "result": "B (a compound having 3 or more and less than 10 is denoted as B)"}
    ]}
  ]
}
